Earlier results as cited in US20230013142A1, “IODINE COMPOUNDS FOR TREATING RESPIRATORY PATHOGENS” (priority 2020, published 2023).

How the values were obtained:
[1] = I2 and I- mixed solutions
[2] = test system: a variety of viruses; settings: on the skin
[3] = test system: influenza viruses
[4] = rats, ingestion, 2-year period
[5] = test system: parasite's acid vesicles; settings: biologically active concentrations
[6] = test system: viral haemagglutinin; settings: blockade of attachment to host cell receptors
[7] = test system: neuraminidase; settings: virucidal mechanism of action

In the case of II [iodine], the “evaporation rate relative to 26 degrees (room temperature)” value ([1]; at 50 degrees Centigrade) is given as “over 10 times”, the “evaporation rate relative to 26 degrees” value ([1]; at 80 degrees) is given as “over 30 times” and the “time for successful use against viruses” value [2] is given as at most 5 min. The “air level considered immediately dangerous to life or health (IDLH)” value (air level) was 2 ppm, the “concentration at which reports of discomfort start (NIOSH)” value (inhalation) was 1.5 ppm and the “concentration at which work is difficult” value (inhalation) was 1.5-2 ppm. The “concentration at which short term exposure can be irritating (as low as)” value (inhalation, short term exposure) was 0.1 ppm, the “concentration at which decreased virulence of viruses occurred” value ([3]; in vitro) was 0.005 ppm and the “concentration for complete inactivation of viruses” value ([3]; within 1 minute in vitro) was 0.1 ppm.
In the case of [I-].[K+] [potassium iodide], the “concentration with long-term decrease in life span” value [4] is given as 100 ppm and the “concentration with no long-term effects” value [4] is given as 10 ppm.
For CCN(CC)CCCC(C)Nc1ccnc2cc(Cl)ccc12 (centres unmarked) [chloroquine], the “time to increase of pH of acid vesicles” value [5] is given as 3-5 min.
For “povidone iodine (2-Pyrrolidinone, 1-ethenyl-homopolymer) [PVP-I]”, the “effect on viral haemagglutinin” value [6] is given as “inhibits” and the effect on neuraminidase [7] is given as “inhibition”.
